Experimental data taken from article PMC12406204 (Journal of Medicinal Chemistry, 2025).

Test system: mouse primary neurons
Assay: Neuroprotection in primary cultures exposed to LPS + IFN-γ
Format: cell-based
Description: To unequivocally confirm that the observed neuroprotective effect was indeed mediated by CB2R activation, an additional experiment was conducted (Figure C).
To prepare primary neurons, brains from fetuses of pregnant CD1 mice were removed (gestational age: 19 days). Neurons were isolated as described in Hradsky et al. Briefly, after removal of the meninges, samples were dissected and digested with 0.25% trypsin (20 min at 37 °C). The effect of trypsin was stopped by adding an equal volume of culture medium (supplemented DMEM). A single-cell suspension was obtained by repeated pipetting followed by passage through a 100 μm-pore mesh. Pelleted (7 min, 200g) cells were resuspended in 2 mL of supplemented DMEM and seeded at a density of 3.5 × 10^5 cells/mL in 6-well plates. […]
Primary cultures of striatal neurons were treated for 24 h with selected SCRAs (100 nM). […] After ∼3 min of incubation at room temperature, 10 μL of the mixture were sampled in a Neubauer chamber and counted with a Countess II FL (Life Technologies, California, CA, USA). The unstained (viable) and stained (nonviable) cells were counted separately, and the percentage of viability was calculated as total number of viable cells/total number of cells × 100.

NC(=O)[C@@H]1CCCCN1C(=O)c1nn(Cc2ccc(F)cc2)c2ccccc12 [18o]
cell viability after LPS + IFN-γ with CB2R antagonist SR144528 (compound alongside SR144528): ~60% | cell viability after LPS + IFN-γ (primary cultures exposed to LPS + IFN-γ): ~100%
